Measured values from US8999970B2, “Administration of an anti-obesity compound to individuals with renal impairment” (Arena Pharmaceuticals, Inc., priority 2010, dated 2015).
Values joined by “and” are separate entries in the source; they are usually repeats but may differ in a detail not shown here. Equal values may be shown once.

Test: Clinical trial APD356-016: plasma and urine pharmacokinetics of lorcaserin, M1 and M5 after a 10 mg dose in subjects with renal impairment
Settings: Severe Renal Impairment Not Receiving Dialysis; for Plasma Concentration of HSO3-APD356 Metabolite, Max: group Max; for Plasma Concentration of HSO3-APD356 Metabolite, Max / Plasma Concentration of HSO3-APD356 Metabolite, Mean / Plasma Concentration of HSO3-APD356 Metabolite, Median / Plasma Concentration of HSO3-APD356 Metabolite, Min: N 8; for Plasma Concentration of HSO3-APD356 Metabolite, Mean: group Mean; for Plasma Concentration of HSO3-APD356 Metabolite, Median: group Median; for Plasma Concentration of HSO3-APD356 Metabolite, Min: group Min; for Plasma Concentration of HSO3-APD356 Metabolite: individual subject
Experimental: The interaction of renal insufficiency with the pharmacokinetics, tolerability and safety of lorcaserin were evaluated in a formal PK study in subjects with renal impairment and in the populations studied in phase 2 and phase 3 clinical studies.
The pharmacokinetic properties of lorcaserin in subjects with varying degrees of renal impairment were evaluated in clinical trial APD356-016. At the time of study conduct and analysis, subjects were assigned to renal impairment groups based on creatinine clearance calculated using IDEAL body weight (Table 1). This calculation was used to avoid overestimation of creatinine clearance due to the excess body weight (overweight and obese subjects were enrolled in the trial). Summaries of pharmacokinetic properties by group assignment using creatinine clearance calculated using ACTUAL body weights are also provided in the sections that follow.
The FDA expects a reasonable margin between anticipated exposures and exposures that may produce toxicity. A reasonable margin can vary depending on the expected toxicity, but generally is an order of magnitude (10 times), but can sometimes be less for mild toxicity.
Table 13. Summary of Plasma Concentrations (ng/mL) of HSO3-APD356 Metabolite over Time by Group: Severe Renal Impairment Not Receiving Dialysis (see Table 13 next page)
Subject number 3140-505 was on dialysis and grouped in the end stage renal disease group.

C[C@H]1CN(S(=O)(=O)O)CCc2ccc(Cl)cc21 [HSO3-APD356 Metabolite]
Plasma Concentration of HSO3-APD356 Metabolite, Max (Day 1 0.5 h): 182 ng/mL
Plasma Concentration of HSO3-APD356 Metabolite, Max (Day 1 1 h): 319 ng/mL
Plasma Concentration of HSO3-APD356 Metabolite, Max (Day 1 2 h): 489 ng/mL
Plasma Concentration of HSO3-APD356 Metabolite, Max (Day 1 3 h): 468 ng/mL
Plasma Concentration of HSO3-APD356 Metabolite, Max (Day 1 4 h): 542 ng/mL
Plasma Concentration of HSO3-APD356 Metabolite, Max (Day 1 6 h): 445 ng/mL
Plasma Concentration of HSO3-APD356 Metabolite, Max (Day 1 8 h): 473 ng/mL
Plasma Concentration of HSO3-APD356 Metabolite, Max (Day 1 12 h): 439 ng/mL
Plasma Concentration of HSO3-APD356 Metabolite, Max (Day 1 16 h): 410 ng/mL
Plasma Concentration of HSO3-APD356 Metabolite, Max (Day 1 Predose): 9.00 ng/mL
Plasma Concentration of HSO3-APD356 Metabolite, Max (Day 2 24 h): 406 ng/mL
Plasma Concentration of HSO3-APD356 Metabolite, Max (Day 2 36 h): 336 ng/mL
Plasma Concentration of HSO3-APD356 Metabolite, Max (Day 3 48 h): 292 ng/mL
Plasma Concentration of HSO3-APD356 Metabolite, Max (Day 4 72 h): 248 ng/mL
Plasma Concentration of HSO3-APD356 Metabolite, Max (Day 5 96 h): 225 ng/mL
Plasma Concentration of HSO3-APD356 Metabolite, Max (Day 6 120 h): 212 ng/mL
Plasma Concentration of HSO3-APD356 Metabolite, Mean (Day 1 0.5 h): 25.7 ng/mL
Plasma Concentration of HSO3-APD356 Metabolite, Mean (Day 1 1 h): 50.6 ng/mL
Plasma Concentration of HSO3-APD356 Metabolite, Mean (Day 1 2 h): 83.2 ng/mL
Plasma Concentration of HSO3-APD356 Metabolite, Mean (Day 1 3 h): 86.8 ng/mL
Plasma Concentration of HSO3-APD356 Metabolite, Mean (Day 1 4 h): 99.5 ng/mL
Plasma Concentration of HSO3-APD356 Metabolite, Mean (Day 1 6 h): 86.7 ng/mL
Plasma Concentration of HSO3-APD356 Metabolite, Mean (Day 1 8 h): 88.9 ng/mL
Plasma Concentration of HSO3-APD356 Metabolite, Mean (Day 1 12 h): 84.3 ng/mL
Plasma Concentration of HSO3-APD356 Metabolite, Mean (Day 1 16 h): 76.8 ng/mL
Plasma Concentration of HSO3-APD356 Metabolite, Mean (Day 1 Predose): 1.13 ng/mL
Plasma Concentration of HSO3-APD356 Metabolite, Mean (Day 2 24 h): 84.4 ng/mL
Plasma Concentration of HSO3-APD356 Metabolite, Mean (Day 2 36 h): 73.9 ng/mL
Plasma Concentration of HSO3-APD356 Metabolite, Mean (Day 3 48 h): 68.1 ng/mL
Plasma Concentration of HSO3-APD356 Metabolite, Mean (Day 4 72 h): 58.3 ng/mL
Plasma Concentration of HSO3-APD356 Metabolite, Mean (Day 5 96 h): 53.8 ng/mL
Plasma Concentration of HSO3-APD356 Metabolite, Mean (Day 6 120 h): 49.2 ng/mL
Plasma Concentration of HSO3-APD356 Metabolite, Median (Day 1 0.5 h): 1.33 ng/mL
Plasma Concentration of HSO3-APD356 Metabolite, Median (Day 1 1 h): 12.6 ng/mL
Plasma Concentration of HSO3-APD356 Metabolite, Median (Day 1 2 h): 24.5 ng/mL
Plasma Concentration of HSO3-APD356 Metabolite, Median (Day 1 3 h): 27.5 ng/mL
Plasma Concentration of HSO3-APD356 Metabolite, Median (Day 1 4 h): 31.6 ng/mL
Plasma Concentration of HSO3-APD356 Metabolite, Median (Day 1 6 h): 32.8 ng/mL
Plasma Concentration of HSO3-APD356 Metabolite, Median (Day 1 8 h): 29.5 ng/mL
Plasma Concentration of HSO3-APD356 Metabolite, Median (Day 1 12 h): 28.9 ng/mL
Plasma Concentration of HSO3-APD356 Metabolite, Median (Day 1 16 h): 28.1 ng/mL
Plasma Concentration of HSO3-APD356 Metabolite, Median (Day 1 Predose): 0.00 ng/mL
Plasma Concentration of HSO3-APD356 Metabolite, Median (Day 2 24 h): 32.5 ng/mL
Plasma Concentration of HSO3-APD356 Metabolite, Median (Day 2 36 h): 35.5 ng/mL
Plasma Concentration of HSO3-APD356 Metabolite, Median (Day 3 48 h): 33.8 ng/mL
Plasma Concentration of HSO3-APD356 Metabolite, Median (Day 4 72 h): 31.6 ng/mL
Plasma Concentration of HSO3-APD356 Metabolite, Median (Day 5 96 h): 31.3 ng/mL
Plasma Concentration of HSO3-APD356 Metabolite, Median (Day 6 120 h): 27.5 ng/mL
Plasma Concentration of HSO3-APD356 Metabolite, Min (Day 1 0.5 h): 0.00 ng/mL
Plasma Concentration of HSO3-APD356 Metabolite, Min (Day 1 1 h): 0.00 ng/mL
Plasma Concentration of HSO3-APD356 Metabolite, Min (Day 1 2 h): 6.08 ng/mL
Plasma Concentration of HSO3-APD356 Metabolite, Min (Day 1 3 h): 17.6 ng/mL
Plasma Concentration of HSO3-APD356 Metabolite, Min (Day 1 4 h): 25.4 ng/mL
Plasma Concentration of HSO3-APD356 Metabolite, Min (Day 1 6 h): 26.1 ng/mL
Plasma Concentration of HSO3-APD356 Metabolite, Min (Day 1 8 h): 25.8 ng/mL
Plasma Concentration of HSO3-APD356 Metabolite, Min (Day 1 12 h): 25.4 ng/mL
Plasma Concentration of HSO3-APD356 Metabolite, Min (Day 1 16 h): 18.0 ng/mL
Plasma Concentration of HSO3-APD356 Metabolite, Min (Day 1 Predose): 0.00 ng/mL
Plasma Concentration of HSO3-APD356 Metabolite, Min (Day 2 24 h): 27.1 ng/mL
Plasma Concentration of HSO3-APD356 Metabolite, Min (Day 2 36 h): 27.8 ng/mL
Plasma Concentration of HSO3-APD356 Metabolite, Min (Day 3 48 h): 25.8 ng/mL
Plasma Concentration of HSO3-APD356 Metabolite, Min (Day 4 72 h): 19.7 ng/mL
Plasma Concentration of HSO3-APD356 Metabolite, Min (Day 5 96 h): 15.1 ng/mL
Plasma Concentration of HSO3-APD356 Metabolite, Min (Day 6 120 h): 12.3 ng/mL
Plasma Concentration of HSO3-APD356 Metabolite (Day 1 0.5 h): 182 ng/mL and 2.66 ng/mL and 8.54 ng/mL and 0.00 ng/mL (2×) and 12.2 ng/mL
Plasma Concentration of HSO3-APD356 Metabolite (Day 1 1 h): 319 ng/mL and 22.8 ng/mL and 18.0 ng/mL and 0.00 ng/mL and 31.4 ng/mL and 4.30 ng/mL
Plasma Concentration of HSO3-APD356 Metabolite (Day 1 2 h): 489 ng/mL and 42.2 ng/mL and 25.1 ng/mL and 6.08 ng/mL and 53.2 ng/mL and 13.3 ng/mL
Plasma Concentration of HSO3-APD356 Metabolite (Day 1 3 h): 468 ng/mL and 52.4 ng/mL and 26.5 ng/mL and 17.6 ng/mL and 55.6 ng/mL and 20.9 ng/mL
Plasma Concentration of HSO3-APD356 Metabolite (Day 1 4 h): 542 ng/mL and 53.3 ng/mL and 28.2 ng/mL and 28.6 ng/mL and 55.1 ng/mL and 25.4 ng/mL
Plasma Concentration of HSO3-APD356 Metabolite (Day 1 6 h): 445 ng/mL and 51.9 ng/mL and 32.2 ng/mL and 29.8 ng/mL and 46.5 ng/mL and 26.1 ng/mL
Plasma Concentration of HSO3-APD356 Metabolite (Day 1 8 h): 473 ng/mL and 49.7 ng/mL and 27.8 ng/mL and 29.2 ng/mL and 50.4 ng/mL and 25.8 ng/mL
Plasma Concentration of HSO3-APD356 Metabolite (Day 1 12 h): 439 ng/mL and 45.9 ng/mL and 27.2 ng/mL and 27.3 ng/mL and 52.2 ng/mL and 25.4 ng/mL
Plasma Concentration of HSO3-APD356 Metabolite (Day 1 16 h): 410 ng/mL and 46.9 ng/mL and 28.1 ng/mL and 27.5 ng/mL and 18.0 ng/mL and 28.0 ng/mL and 30.6 ng/mL
Plasma Concentration of HSO3-APD356 Metabolite (Day 1 Predose): 0.00 ng/mL (6×) and 9.00 ng/mL
Plasma Concentration of HSO3-APD356 Metabolite (Day 2 24 h): 406 ng/mL and 51.1 ng/mL and 33.0 ng/mL and 31.9 ng/mL and 62.4 ng/mL and 31.6 ng/mL and 32.0 ng/mL
Plasma Concentration of HSO3-APD356 Metabolite (Day 2 36 h): 336 ng/mL and 45.5 ng/mL and 40.4 ng/mL and 30.6 ng/mL (2×) and 52.2 ng/mL and 28.4 ng/mL
Plasma Concentration of HSO3-APD356 Metabolite (Day 3 48 h): 292 ng/mL and 47.2 ng/mL and 34.3 ng/mL and 31.0 ng/mL and 54.2 ng/mL and 33.3 ng/mL
Plasma Concentration of HSO3-APD356 Metabolite (Day 4 72 h): 248 ng/mL and 40.2 ng/mL and 33.0 ng/mL and 27.9 ng/mL and 46.2 ng/mL and 30.2 ng/mL
Plasma Concentration of HSO3-APD356 Metabolite (Day 5 96 h): 225 ng/mL and 36.0 ng/mL and 30.2 ng/mL and 28.5 ng/mL and 43.8 ng/mL and 32.3 ng/mL
Plasma Concentration of HSO3-APD356 Metabolite (Day 6 120 h): 212 ng/mL and 30.4 ng/mL and 26.3 ng/mL and 25.2 ng/mL and 40.1 ng/mL and 28.6 ng/mL
